For this experiment, the target named is BRD4 (Homo sapiens, UniProt O60885). Kind of experiment: Time resolved fluorescence resonance energy transfer (TR-FRET) binding assay, bromodomain BRD4. The note with it: one of the FRET assays described; read-out: FRET BRD4 IC50.

From patent US9725449B2, “Tricyclic compounds as anticancer agents” (BRISTOL-MYERS SQUIBB COMPANY, priority 2015, dated 2017) come the findings set out here.

As for `[2H]C([2H])([2H])c1nnn(C)c1-c1cnc2c3ccc(N4CC(=O)NC(=O)C4)nc3n([C@H](c3ccccc3)C3CCOCC3)c2c1` [Example 212, 4-{5-[4-(^2H3)Methyl-1-methyl-1H-1,2,3-triazol-5-yl]-8-[(S)-oxan-4-yl(phenyl)methyl]-3,8,10-triazatricyclo[7.4.0.0^2,^7]trideca-1(9),2(7),3,5,10,12-hexaen-11-yl}piperazine-2,6-dione], the IC50 (as a rule, the concentration that gives 50% inhibition) was less than 10 nM. The same measure for `[2H]C([2H])([2H])c1nnn(C)c1-c1cnc2c3c(O)ncc(S(C)(=O)=O)c3n([C@H](c3ccccc3)C3CCC(F)(F)CC3)c2c1` [Example 92, 8-[(S)-(4,4-Difluorocyclohexyl)(phenyl)methyl]-10-methanesulfonyl-5-[4-(^2H3)methyl-1-methyl-1H-1,2,3-triazol-5-yl]-3,8,12-triazatricyclo[7.4.0.0^2,^7]trideca-1(13),2(7),3,5,9,11-hexaen-13-ol]: less than 10 nM. As for `[2H]C([2H])([2H])c1nnn(C)c1-c1cnc2c3c(OCC(F)(F)F)cncc3n([C@H](c3ccccc3)C3CCOCC3)c2c1` [Example 301, 5-[4-(^2H3)Methyl-1-methyl-1H-1,2,3-triazol-5-yl]-8-[(S)-oxan-4-yl(phenyl)methyl]-13-(2,2,2-trifluoroethoxy)-3,8,11-triazatricyclo[7.4.0.0^2,^7]trideca-1(9),2(7),3,5,10,12-hexaene], the figure is less than 1 nM; as for `Cc1nnn(C)c1-c1cnc2c3ccc(C#N)nc3n([C@H](c3ccccc3)C3CCOCC3)c2c1` [Example 169, 5-(Dimethyl-1H-1,2,3-triazol-5-yl)-8-[(S)-oxan-4-yl(phenyl)methyl]-3,8,10-triazatricyclo[7.4.0.0^2,^7]trideca-1(9),2(7),3,5,10,12-hexaene-11-carbonitrile], less than 10 nM. `[2H]C([2H])([2H])c1nnn(C)c1-c1cnc2c3cnc(N4CCN(C)CC4)cc3n([C@H](c3ccccc3F)C3CCOCC3)c2c1` [Example 244, 8-[(S)-(2-Fluorophenyl)(oxan-4-yl)methyl]-5-[4-(^2H3)methyl-1-methyl-1H-1,2,3-triazol-5-yl]-11-(4-methylpiperazin-1-yl)-3,8,12-triazatricyclo[7.4.0.0^2,^7]trideca-1(13),2(7),3,5,9,11-hexaene]: the IC50 is less than 10 nM.

With `CCCC(c1ncccc1F)n1c2cc(-c3c(C)nnn3C)ncc2c2ncc(C(C)(C)O)cc21` (single isomer, unassigned) [Example 371], the IC50 was less than 10 nM. With `Cc1nnn(C)c1-c1cnc2c3ccc(N4CCN(C5CCN(C)CC5)CC4)nc3n([C@H](c3ccccc3F)C3CCOCC3)c2c1` [Example 270, 5-(Dimethyl-1H-1,2,3-triazol-5-yl)-8-[(S)-(2-fluorophenyl)(oxan-4-yl)methyl]-11-[4-(1-methylpiperidin-4-yl)piperazin-1-yl]-3,8,10-triazatricyclo[7.4.0.0^2,^7]trideca-1(13),2(7),3,5,9,11-hexaene], the IC50 was less than 1 nM.

As for `Cc1nnn(C)c1-c1cnc2c3ccc(-c4c(C)nnn4C)nc3n([C@H](c3ccccc3)C3CCOCC3)c2c1` [Example 163, 5,11-Bis(dimethyl-1H-1,2,3-triazol-5-yl)-8-[(S)-oxan-4-yl(phenyl)methyl]-3,8,10-triazatricyclo[7.4.0.0^2,^7]trideca-1(9),2(7),3,5,10,12-hexaene], the IC50 is less than 1 nM. On to `COc1ncc(S(C)(=O)=O)c2c1c1ncc(-c3c(C)noc3C)cc1n2C(c1ccccc1)C1CCC(F)(F)CC1` (single isomer, unassigned) [Example 88, 8-[(4,4-Difluorocyclohexyl)(phenyl)methyl]-5-(dimethyl-1,2-oxazol-4-yl)-10-methanesulfonyl-13-methoxy-3,8,12-triazatricyclo[7.4.0.0^2,^7]trideca-1(13),2(7),3,5,9,11-hexaene], for which the IC50 is less than 10 nM. As for `Cc1nnn(C)c1-c1cnc2c3ccc(N4CCS(=O)(=O)C(C)C4)nc3n(C(c3ccccc3)C3CCOCC3)c2c1` [Example 217, 4-[5-(Dimethyl-1H-1,2,3-triazol-5-yl)-8-[(S)-oxan-4-yl(phenyl)methyl]-3,8,10-triazatricyclo[7.4.0.0^2,^7]trideca-1(9),2(7),3,5,10,12-hexaen-11-yl]-2-methyl-1λ^6,4-thiomorpholine-1,1-dione], the IC50 was less than 10 nM.

Take `[2H]C([2H])([2H])c1nnn(C)c1-c1cnc2c3cnc(OC)cc3n([C@H](c3ccccc3)C3CCOCC3)c2c1` [Example 287, 11-Methoxy-5-[4-(^2H3)methyl-1-methyl-1H-1,2,3-triazol-5-yl]-8-[(S)-oxan-4-yl(phenyl)methyl]-3,8,12-triazatricyclo[7.4.0.0^2,^7]trideca-1(9),2(7),3,5,10,12-hexaene]: the IC50 is less than 1 nM.

In the case of `Cc1cccnc1C(C1CCOCC1)n1c2cc(-c3c(C)nnn3C)ncc2c2ncc(C(C)(C)O)cc21` (single isomer, unassigned) [Example 373], the IC50 is less than 1500 nM. As for `Cc1nnn(C)c1-c1cnc2c3c(Cl)nc(C(C)(C)O)cc3n([C@H](c3ccccc3)C3CCOCC3)c2c1` [Example 294, 2-{13-chloro-5-[4-(^2H3)methyl-1-methyl-1H-1,2,3-triazol-5-yl]-8-[(S)-oxan-4-yl(phenyl)methyl]-3,8,12-triazatricyclo[7.4.0.0^2,^7]trideca-1(13),2(7),3,5,9,11-hexaen-11-yl}propan-2-ol], the figure is less than 10 nM; as for `CC(=O)c1cnc2c3ccc(-c4c(C)nnn4C)nc3n([C@@H](c3ccccc3)C3CCOCC3)c2c1` [Example 377, 1-[11-(Dimethyl-1H-1,2,3-triazol-5-yl)-8-[(R)-oxan-4-yl(phenyl)methyl]-3,8,10-triazatricyclo[7.4.0.0^2,^7]trideca-1(9),2(7),3,5,10,12-hexaen-5-yl]ethan-1-one], less than 10 nM; as for `[2H]C([2H])([2H])c1nnn(C)c1-c1cnc2c3cncc(S(C)(=O)=O)c3n([C@H](c3ccccc3)C3CCOCC3)c2c1` [Example 286, 10-Methanesulfonyl-5-[4-(^2H3)methyl-1-methyl-1H-1,2,3-triazol-5-yl]-8-[(S)-oxan-4-yl(phenyl)methyl]-3,8,12-triazatricyclo[7.4.0.0^2,^7]trideca-1(13),2(7),3,5,9,11-hexaene], less than 10 nM. As for “2-{8-[(3-Fluoropyridin-2-yl)(oxan-4-yl)methyl]-11-[4-(^2H3)methyl-1-methyl-1H-1,2,3-triazol-5-yl]-3,8,10-triazatricyclo[7.4.0.0^2,^7]trideca-1(9),2,4,6,10,12-hexaen-5-yl}propan-2-ol [Example 363]”, the figure is less than 1 nM; as for `Cc1nnn(C)c1-c1cnc2c3cnc(C(C)(C)O)cc3n([C@H](c3ccccc3)C3CCOCC3)c2c1` [Example 285, 2-[5-(Dimethyl-1H-1,2,3-triazol-5-yl)-8-[(S)-oxan-4-yl(phenyl)methyl]-3,8,12-triazatricyclo[7.4.0.0^2,^7]trideca-1(9),2(7),3,5,10,12-hexaen-11-yl]propan-2-ol], less than 1 nM. As for `CCc1nnn(C)c1-c1cnc2c3cnc(C(C)(C)O)cc3n([C@H](c3ccccc3)C3CCOCC3)c2c1` [Example 340, 2-[5-(4-Ethyl-1-methyl-1H-1,2,3-triazol-5-yl)-8-[(S)-oxan-4-yl(phenyl)methyl]-3,8,12-triazatricyclo[7.4.0.0^2,^7]trideca-1(9),2(7),3,5,10,12-hexaen-11-yl]propan-2-ol], the figure is less than 10 nM; as for `[2H]C([2H])([2H])c1nnn(C)c1-c1cnc2c3ccc(C4=CCSCC4)nc3n([C@H](c3ccccc3)C3CCOCC3)c2c1` [Example 203, 11-(3,6-Dihydro-2H-thiopyran-4-yl)-5-[4-(^2H3)methyl-1-methyl-1H-1,2,3-triazol-5-yl]-8-[(S)-oxan-4-yl(phenyl)methyl]-3,8,10-triazatricyclo[7.4.0.0^2,^7]trideca-1(9),2(7),3,5,10,12-hexaene], less than 10 nM. Turning to `Cc1nnn(C)c1-c1cnc2c3cnccc3n([C@H](c3ccccc3)C3CCOCC3)c2c1` [Example 35, 5-(Dimethyl-1H-1,2,3-triazol-5-yl)-8-[(S)-oxan-4-yl(phenyl)methyl]-3,8,12-triazatricyclo[7.4.0.0^2,^7]trideca-1(13),2(7),3,5,9,11-hexaene], the IC50 is less than 10 nM. As for `[2H]C([2H])([2H])c1nnn(C)c1-c1cnc2c3c(OC)ncc(C(C)(C)O)c3n(C(c3ccccc3)C3CCC(F)(F)CC3)c2c1` (single isomer, unassigned) [Example 281, 2-{8-[(4,4-Difluorocyclohexyl)(phenyl)methyl]-13-methoxy-5-[4-(^2H3)methyl-1-methyl-1H-1,2,3-triazol-5-yl]-3,8,12-triazatricyclo[7.4.0.0^2,^7]trideca-1(9),2,4,6,10,12-hexaen-10-yl}propan-2-ol], the figure is less than 10 nM; as for `[2H]C([2H])([2H])c1nnn(C)c1-c1cnc2c3c(OCC4CC4)ncc(S(C)(=O)=O)c3n([C@H](c3ccccc3F)C3CCOCC3)c2c1` [Example 76, 13-(Cyclopropylmethoxy)-8-[(S)-(2-fluorophenyl)(oxan-4-yl)methyl]-10-methanesulfonyl-5-[4-(^2H3)methyl-1-methyl-1H-1,2,3-triazol-5-yl]-3,8,12-triazatricyclo[7.4.0.0^2,^7]trideca-1(13),2(7),3,5,9,11-hexaene], less than 1 nM.

As for `CNS(=O)(=O)c1ccc2c3ncc(-c4c(C)nnn4C)cc3n([C@H](c3ccccc3)C3CCOCC3)c2n1` [Example 199, 5-(Dimethyl-1H-1,2,3-triazol-5-yl)-N-methyl-8-[(S)-oxan-4-yl(phenyl)methyl]-3,8,10-triazatricyclo[7.4.0.0^2,^7]trideca-1(9),2(7),3,5,10,12-hexaene-11-sulfonamide], the IC50 is less than 10 nM.

`Cc1nnn(C)c1-c1cnc2c3ccc(NC(=O)OC(C)C)nc3n([C@H](c3ccccc3)C3CCOCC3)c2c1` [Example 206, Propan-2-yl N-[5-(dimethyl-1H-1,2,3-triazol-5-yl)-8-[(S)-oxan-4-yl(phenyl)methyl]-3,8,10-triazatricyclo[7.4.0.0^2,^7]trideca-1(9),2(7),3,5,10,12-hexaen-11-yl]carbamate]: the IC50 is less than 10 nM.
